Experimental findings from ChEMBL document CHEMBL3769401, “The first potent diphenyl phosphonate KLK4 inhibitors with unexpected binding kinetics” (Medchemcomm, 2015) are described below.

A word on the IC50: it is the concentration that inhibits the measured activity by half.

Assay [1] addresses T1, Kallikrein-2 (Homo sapiens, UniProt P20151).
T1 sequence (P20151 whole entry): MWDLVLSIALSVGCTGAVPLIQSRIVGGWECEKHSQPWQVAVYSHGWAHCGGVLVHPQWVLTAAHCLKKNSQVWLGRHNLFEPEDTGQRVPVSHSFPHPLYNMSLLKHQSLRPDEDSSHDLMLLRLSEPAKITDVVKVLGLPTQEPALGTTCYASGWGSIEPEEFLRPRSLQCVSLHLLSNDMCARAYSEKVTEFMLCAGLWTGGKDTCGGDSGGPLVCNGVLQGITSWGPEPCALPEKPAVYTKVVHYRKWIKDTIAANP
The assay is described as follows: Inhibition of human recombinant KLK2 expressed in Escherichia coli using Bachem I-1295 as substrate preincubated for 15 mins followed by substrate addition by microplate reader analysis.

In assay [2] the target is T2, Prothrombin (Homo sapiens, UniProt P00734). The experiment in a line: Reversible inhibition of human thrombin using Biophen CS-21(66) as substrate at 100 times IC50 preincubated for 15 mins followed by 100 fold dilution measured for 1 hr.
Assay [3] deals with Acetylcholinesterase (Electrophorus electricus, UniProt O42275). The experiment in a line: Inhibition of Electrophorus electricus AChE using acetylthiocholine iodide as substrate by 5-5'-Dithiobis(2 nitrobenzoic acid)-based assay.
Chain of Acetylcholinesterase (O42275 whole entry): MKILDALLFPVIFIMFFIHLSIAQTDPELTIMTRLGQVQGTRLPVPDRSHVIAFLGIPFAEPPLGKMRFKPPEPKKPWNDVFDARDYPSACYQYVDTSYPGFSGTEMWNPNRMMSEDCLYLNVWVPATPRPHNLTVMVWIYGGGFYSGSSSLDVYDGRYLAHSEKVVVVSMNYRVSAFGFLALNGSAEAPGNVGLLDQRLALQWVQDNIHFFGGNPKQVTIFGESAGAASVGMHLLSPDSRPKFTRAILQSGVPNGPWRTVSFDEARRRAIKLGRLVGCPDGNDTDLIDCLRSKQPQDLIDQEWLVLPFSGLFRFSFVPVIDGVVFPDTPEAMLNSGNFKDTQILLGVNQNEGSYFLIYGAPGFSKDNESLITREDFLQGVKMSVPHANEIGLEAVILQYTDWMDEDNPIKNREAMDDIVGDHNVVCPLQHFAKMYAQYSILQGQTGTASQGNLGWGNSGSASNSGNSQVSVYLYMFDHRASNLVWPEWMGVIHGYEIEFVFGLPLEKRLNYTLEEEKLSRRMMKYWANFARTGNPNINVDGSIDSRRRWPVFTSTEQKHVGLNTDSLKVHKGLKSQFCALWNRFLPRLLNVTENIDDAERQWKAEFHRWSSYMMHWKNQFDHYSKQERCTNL
The target of assay [4] is T3, Kallikrein-8 (Homo sapiens, UniProt O60259).
T3 sequence (O60259 whole entry): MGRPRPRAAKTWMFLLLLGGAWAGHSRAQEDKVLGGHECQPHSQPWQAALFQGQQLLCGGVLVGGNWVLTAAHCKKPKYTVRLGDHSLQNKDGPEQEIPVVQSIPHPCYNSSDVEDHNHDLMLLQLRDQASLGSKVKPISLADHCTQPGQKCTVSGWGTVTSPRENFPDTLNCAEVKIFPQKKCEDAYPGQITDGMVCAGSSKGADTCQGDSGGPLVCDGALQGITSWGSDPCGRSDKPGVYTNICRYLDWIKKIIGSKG
The experiment in a line: Inhibition of human recombinant KLK8 expressed in Escherichia coli using Bachem I-1120 as substrate preincubated for 15 mins followed by substrate addition by microplate reader analysis.

Assay [5] deals with Coagulation factor X (Homo sapiens, UniProt P00742). The assay is described as follows: Inhibition of factor 10a (unknown origin) using Biophen CS-11(32) as substrate.
Chain of Coagulation factor X (P00742 41-179 limits assumed): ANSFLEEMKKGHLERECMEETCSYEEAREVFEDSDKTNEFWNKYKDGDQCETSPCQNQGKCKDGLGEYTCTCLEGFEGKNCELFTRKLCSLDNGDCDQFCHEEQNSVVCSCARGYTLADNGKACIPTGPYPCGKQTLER
Chain of Coagulation factor X (P00742 235-488 limits assumed): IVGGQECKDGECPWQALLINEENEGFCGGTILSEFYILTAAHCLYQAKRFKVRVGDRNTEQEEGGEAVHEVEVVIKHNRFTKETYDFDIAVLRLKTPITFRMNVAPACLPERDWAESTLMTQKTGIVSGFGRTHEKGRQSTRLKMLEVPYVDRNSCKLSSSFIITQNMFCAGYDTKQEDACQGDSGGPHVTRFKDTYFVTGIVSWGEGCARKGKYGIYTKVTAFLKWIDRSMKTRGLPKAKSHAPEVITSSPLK
In assay [6] the target is T4, Kallikrein-8 (Homo sapiens) (UniProt O60259).
T4 sequence (whole entry): T3 sequence (O60259 whole entry)
The assay is described as follows: Reversible inhibition of human recombinant KLK8 expressed in Escherichia coli using Boc-Val-Pro-Arg-AMC as fluorogenic substrate at 100 times IC50 preincubated for 15 mins followed by 100 fold dilution measured for 1 hr.

The target in assay [7] is T5, Kallikrein-2 (Homo sapiens) (UniProt P20151).
T5 sequence (whole entry): T1 sequence (P20151 whole entry)
The experiment in a line: Reversible inhibition of human recombinant KLK2 expressed in Escherichia coli using H-Pro-Phe-Arg-AMC as fluorogenic substrate at 100 times IC50 preincubated for 15 mins followed by 100 fold dilution measured for 1 hr.

For assay [8], the target named is T6, Kallikrein-1 (Homo sapiens, UniProt P06870). The experiment in a line: Inhibition of human recombinant KLK1 expressed in Escherichia coli using Bachem I-1295 as substrate preincubated for 15 mins followed by substrate addition by microplate reader analysis.
Target sequence in this assay (P06870 whole entry): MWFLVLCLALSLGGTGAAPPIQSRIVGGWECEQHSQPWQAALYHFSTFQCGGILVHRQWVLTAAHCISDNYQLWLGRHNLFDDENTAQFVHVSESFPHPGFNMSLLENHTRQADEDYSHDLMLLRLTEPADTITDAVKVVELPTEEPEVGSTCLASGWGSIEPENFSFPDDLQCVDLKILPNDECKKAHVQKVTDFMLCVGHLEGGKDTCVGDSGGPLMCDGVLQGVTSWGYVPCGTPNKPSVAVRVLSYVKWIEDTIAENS
Assay [9] has as its target T7, Kallikrein-4 (Homo sapiens, UniProt Q9Y5K2). The assay is described as follows: Reversible inhibition of human recombinant KLK4 expressed in Escherichia coli using Bachem I-1120 as fluorogenic substrate at 100 times IC50 preincubated for 15 mins followed by 100 fold dilution measured for 1 hr by microplate reader analysis.
The target of assay [10] is T7, Kallikrein-4. The experiment in a line: Inhibition of human recombinant KLK4 expressed in Escherichia coli using Bachem I-1120 as substrate preincubated for 15 mins followed by substrate addition by microplate reader analysis.
In assay [11] the target is Plasminogen (Homo sapiens, UniProt P00747). The experiment in a line: Inhibition of human plasma plasmin using Biophen CS-21(66) as substrate. It counts as cell-free.
Chain of Plasminogen (P00747 97-580 limits assumed): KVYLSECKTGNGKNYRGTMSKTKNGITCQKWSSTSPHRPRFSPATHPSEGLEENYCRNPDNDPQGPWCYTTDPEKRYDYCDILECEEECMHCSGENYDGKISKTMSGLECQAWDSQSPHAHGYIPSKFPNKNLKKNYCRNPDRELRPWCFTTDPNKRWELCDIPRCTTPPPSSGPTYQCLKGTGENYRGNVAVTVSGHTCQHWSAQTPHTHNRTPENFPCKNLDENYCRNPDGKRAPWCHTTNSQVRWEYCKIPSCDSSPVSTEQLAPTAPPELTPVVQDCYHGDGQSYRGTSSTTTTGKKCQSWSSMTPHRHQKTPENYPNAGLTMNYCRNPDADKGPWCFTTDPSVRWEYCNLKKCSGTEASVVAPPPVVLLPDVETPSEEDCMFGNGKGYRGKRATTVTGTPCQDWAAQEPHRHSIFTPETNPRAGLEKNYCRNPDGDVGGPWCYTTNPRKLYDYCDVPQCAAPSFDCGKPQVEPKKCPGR
Chain of Plasminogen (P00747 581-810 limits assumed): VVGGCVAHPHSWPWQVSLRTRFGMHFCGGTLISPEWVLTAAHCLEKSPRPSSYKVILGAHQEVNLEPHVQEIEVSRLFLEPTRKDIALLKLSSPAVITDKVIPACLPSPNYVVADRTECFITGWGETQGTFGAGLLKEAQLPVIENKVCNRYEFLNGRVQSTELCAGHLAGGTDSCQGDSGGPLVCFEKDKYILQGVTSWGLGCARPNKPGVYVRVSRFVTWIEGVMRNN
Assay [12] deals with T2, Prothrombin. The assay is described as follows: Inhibition of human plasma thrombin using Biophen CS-21(66) as substrate preincubated for 15 mins followed by substrate addition by microplate reader analysis. It counts as cell-free.
Assay [13] has as its target Tissue-type plasminogen activator (Homo sapiens, UniProt P00750). The experiment in a line: Inhibition of recombinant tPA (unknown origin) using Biophen CS-05(88) as substrate.
The target in assay [14] is T4, Kallikrein-8 (Homo sapiens). The experiment in a line: Irreversible inhibition of human recombinant KLK8 expressed in Escherichia coli using Boc-Val-Pro-Arg-AMC as fluorogenic substrate at 100 times IC50 preincubated for 15 mins followed by 100 fold dilution measured for 1 hr.
For assay [15], the target named is Urokinase-type plasminogen activator (Homo sapiens, UniProt P00749). The assay is described as follows: Inhibition of recombinant uPA (unknown origin) using Biophen CS-61(44) as substrate.
Assay [16] deals with T5, Kallikrein-2 (Homo sapiens). The experiment in a line: Irreversible inhibition of human recombinant KLK2 expressed in Escherichia coli using H-Pro-Phe-Arg-AMC as fluorogenic substrate at 100 times IC50 preincubated for 15 mins followed by 100 fold dilution measured for 1 hr.
For assay [17], the species on record is Homo sapiens. The experiment in a line: Selectivity ratio of IC50 for human recombinant KLK1 to IC50 for human recombinant KLK4.
Assay [18] is filed under the species Homo sapiens. The assay is described as follows: Selectivity ratio of IC50 for recombinant tPA (unknown origin) to IC50 for human recombinant KLK4.
For assay [19], the species on record is Homo sapiens. The experiment in a line: Selectivity ratio of IC50 for human plasma thrombin to IC50 for human recombinant KLK4.
Assay [20] in a line: Selectivity ratio of IC50 for Electrophorus electricus AChE to IC50 for human recombinant KLK4.
Assay [21] is filed under the species Homo sapiens. The assay is described as follows: Selectivity ratio of IC50 for factor 10a (unknown origin) to IC50 for human recombinant KLK4.
For assay [22], the species on record is Homo sapiens. The experiment in a line: Selectivity ratio of IC50 for human recombinant KLK8 to IC50 for human recombinant KLK4.
For assay [23], the species on record is Homo sapiens. The assay is described as follows: Selectivity ratio of IC50 for human plasma plasmin to IC50 for human recombinant KLK4.
The species named for assay [24] is Homo sapiens. The assay is described as follows: Selectivity ratio of IC50 for recombinant uPA (unknown origin) to IC50 for human recombinant KLK4.
For assay [25], the target named is T6, Kallikrein-1. The assay is described as follows: Reversible inhibition of human recombinant KLK1 expressed in Escherichia coli using H-Pro-Phe-Arg-AMC as fluorogenic substrate at 100 times IC50 preincubated for 15 mins followed by 100 fold dilution measured for 1 hr.
Target sequence in this assay (P06870 25-262 limits assumed): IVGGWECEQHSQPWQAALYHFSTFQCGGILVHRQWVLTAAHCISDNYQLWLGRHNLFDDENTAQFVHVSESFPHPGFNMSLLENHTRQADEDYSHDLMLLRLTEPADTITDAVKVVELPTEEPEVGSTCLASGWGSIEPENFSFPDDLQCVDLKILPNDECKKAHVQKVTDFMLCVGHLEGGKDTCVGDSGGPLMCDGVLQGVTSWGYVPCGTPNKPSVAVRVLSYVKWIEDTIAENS
Assay [26] is filed under the species Homo sapiens. The experiment in a line: Selectivity ratio of IC50 for human recombinant KLK2 to IC50 for human recombinant KLK4.
Assay [27] has as its target T6, Kallikrein-1. The experiment in a line: Irreversible inhibition of human recombinant KLK1 expressed in Escherichia coli using H-Pro-Phe-Arg-AMC as fluorogenic substrate at 100 times IC50 preincubated for 15 mins followed by 100 fold dilution measured for 1 hr.
Target sequence in this assay (P06870 25-262 limits assumed): as above

Activity calls are given as the source filed them. The calls are words filed in the database; no cut-off is given here.

T7 sequence (Q9Y5K2 whole entry): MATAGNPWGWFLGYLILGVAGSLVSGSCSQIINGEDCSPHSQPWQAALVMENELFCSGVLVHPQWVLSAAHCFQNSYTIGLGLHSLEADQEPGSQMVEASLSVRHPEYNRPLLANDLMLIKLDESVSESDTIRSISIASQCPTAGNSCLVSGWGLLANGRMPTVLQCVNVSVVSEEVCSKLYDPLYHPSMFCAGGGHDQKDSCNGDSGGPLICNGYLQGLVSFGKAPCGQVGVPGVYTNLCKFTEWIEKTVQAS
Chain of Tissue-type plasminogen activator (P00750 whole entry): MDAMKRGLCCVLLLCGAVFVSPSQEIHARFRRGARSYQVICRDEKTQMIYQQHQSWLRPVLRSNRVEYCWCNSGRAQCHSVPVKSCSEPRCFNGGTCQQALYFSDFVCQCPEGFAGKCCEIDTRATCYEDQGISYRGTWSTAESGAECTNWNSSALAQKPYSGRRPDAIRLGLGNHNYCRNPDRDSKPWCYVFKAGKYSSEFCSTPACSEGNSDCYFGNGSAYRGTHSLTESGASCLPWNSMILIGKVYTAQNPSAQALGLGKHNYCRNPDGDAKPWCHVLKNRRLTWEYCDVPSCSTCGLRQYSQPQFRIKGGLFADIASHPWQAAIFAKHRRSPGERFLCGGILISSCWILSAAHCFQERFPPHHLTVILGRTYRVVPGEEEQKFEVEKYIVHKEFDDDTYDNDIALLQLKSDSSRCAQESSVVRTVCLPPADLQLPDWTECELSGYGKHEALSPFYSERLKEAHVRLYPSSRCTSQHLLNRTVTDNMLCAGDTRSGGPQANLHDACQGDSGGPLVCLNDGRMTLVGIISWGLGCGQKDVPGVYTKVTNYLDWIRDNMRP

Consider `N=C(N)Nc1ccc(CC(NC(=O)OCc2ccccc2)P(=O)(Oc2ccccc2)Oc2ccccc2)cc1` (centres undefined), for which the IC50 in assay [1] is 0.53 µM; in assay [3], more than 20 µM; in assay [4], 0.17 µM; in assay [5] it was more than 10 µM; in assay [8], more than 10 µM. For the same molecule, the inhibition entry in assay [2], in assay [6] and in assay [7] was “Active” throughout. Besides, in assay [9], the “reversible inhibition (activity call)” value is “Active”.

`N=C(N)c1ccc(CCC(NC(=O)OCc2ccccc2)P(=O)(Oc2ccccc2)Oc2ccccc2)cc1` (centres undefined): the IC50 in [1] is 0.72 µM; in [3] it was more than 20 µM; in assay [4], 5 µM; in [8] it was 1.37 µM; in [10] it was 0.015 µM. In assay [7], the inhibition result is “Active”. The “reversible inhibition (activity call)” value in assay [9] was “Active”.

With `N=C(N)c1ccc(C(NC(=O)OCc2ccccc2)P(=O)(Oc2ccccc2)Oc2ccccc2)cc1` (centres undefined), the IC50 in [1] was more than 2.5 µM; in assay [3], more than 10 µM; in assay [11] it was more than 2.5 µM; in assay [4], 0.79 µM; in assay [5] it was more than 2.5 µM; in [12] it was 0.196 µM. The values for the IC50 in [13], in assay [8] and in [10] were more than 2.5 µM, more than 2.5 µM and 0.041 µM, respectively. The inhibition entry in assay [2] and in assay [14] was “Active” throughout. In assay [9], the “reversible inhibition (activity call)” value is “Active”.

With `Nc1ccc(C(NC(=O)OCc2ccccc2)P(=O)(Oc2ccccc2)Oc2ccccc2)cc1` (centres undefined), the IC50 in [1] is more than 2.5 µM; in assay [3] it was more than 10 µM; in [11] it was more than 10 µM; in assay [4], more than 10 µM; in assay [5], more than 10 µM; in assay [12] it was more than 10 µM. For the same molecule, the 50% inhibitory concentration (IC50) in [13], in [15], in assay [8] and in assay [10] was more than 10 µM each time.

For `N=C(N)Nc1ccc(CP(=O)(Oc2ccccc2)Oc2ccccc2)cc1`, the inhibition result in assay [16] and in assay [6] was “Active” throughout. Also, the IC50 in assay [1] was 2.44 µM; in [3], more than 10 µM; in [11] it was more than 10 µM; in assay [4], 1.44 µM; in assay [5], more than 10 µM; in assay [12], more than 10 µM. In addition, the IC50 in assay [13] is more than 10 µM; in [15] it was 1.4 µM; in [8], more than 2.5 µM; in assay [10], 0.25 µM. In addition, the “reversible inhibition (activity call)” value in assay [9] is “Active”.

For `NCCCC(NC(=O)OCc1ccccc1)P(=O)(Oc1ccccc1)Oc1ccccc1` (centres undefined), the IC50 is more than 2.5 µM in assay [1]; more than 10 µM in assay [3]; more than 250 µM in [11]; more than 10 µM in assay [4]; more than 250 µM in assay [5]; more than 2.5 µM in assay [12]. Further, the IC50 in assay [13] was more than 2.5 µM; in [15] it was more than 250 µM; in assay [8], more than 10 µM; in [10], more than 2.5 µM.

For the molecule `N=C(N)Nc1ccc(C(NC(=O)OCc2ccccc2)P(=O)(Oc2ccccc2)Oc2ccccc2)cc1` (centres undefined), the Ratio IC50 in assay [17] is 70; in assay [18], more than 300; in assay [19] it was more than 300; in assay [20], more than 300; in assay [21], more than 300; in assay [22] it was more than 300. In addition, the Ratio IC50 in [23] was more than 300; in assay [24] it was more than 300; in assay [26], 70. The IC50 in [1] is 0.22 µM; in assay [3] it was more than 10 µM; in assay [11], 4.9 µM; in assay [4], 1.16 µM; in assay [5], 3.6 µM; in assay [12], 250 µM. The IC50 in [13] worked out at 250 µM; in assay [15], 2.7 µM; in assay [8] it was 0.24 µM; in assay [10], 0.0034 µM. The inhibition result in assay [7] and in assay [25] was “Active” in each case. Further, the “reversible inhibition (activity call)” value in assay [9] was “Active”.

As to `O=C(NC(c1ccc(O)cc1)P(=O)(Oc1ccccc1)Oc1ccccc1)OCc1ccccc1` (centres undefined), the IC50 in assay [1] was more than 2.5 µM; in assay [3], more than 10 µM; in [11] it was more than 10 µM; in assay [4] it was more than 10 µM; in assay [5] it was more than 10 µM; in [12], more than 10 µM. Further, the IC50 in assay [13] is more than 10 µM; in [15], more than 10 µM; in assay [8] it was 0.086 µM; in [10] it was more than 10 µM. For the same molecule, the inhibition entry in [27] was “Active”.

On to `N=C(N)Nc1ccc(CCP(=O)(Oc2ccccc2)Oc2ccccc2)cc1`, for which the inhibition result in assay [16] and in assay [6] was “Active” each time. Also, the IC50 in assay [1] was 3.02 µM; in assay [3] it was more than 10 µM; in assay [11], more than 10 µM; in [4] it was 0.17 µM; in assay [5] it was more than 10 µM; in assay [12], more than 10 µM. In addition, the IC50 is more than 10 µM in assay [13], 0.0079 µM in assay [15], more than 2.5 µM in assay [8] and 0.08 µM in [10]. The “reversible inhibition (activity call)” value in assay [9] is “Active”.

As for `N=C(N)NCCCC(NC(=O)OCc1ccccc1)P(=O)(Oc1ccccc1)Oc1ccccc1` (centres undefined), the half-maximal inhibitory concentration (IC50) in [1] was more than 2.5 µM; in assay [3], more than 10 µM; in assay [4], 0.125 µM; in assay [5], more than 10 µM; in [12] it was 0.8 µM; in assay [8], 0.82 µM. The IC50 in assay [10] was determined as 0.04 µM. Moreover, the inhibition entry in [2] was “Active”. For the same molecule, the “reversible inhibition (activity call)” value in assay [9] was “Active”.

As to `Nc1ccc(CC(NC(=O)OCc2ccccc2)P(=O)(Oc2ccccc2)Oc2ccccc2)cc1` (centres undefined), the IC50 is more than 10 µM in assay [1]; more than 10 µM in assay [4]; more than 10 µM in [5]; 62 µM in assay [12]; 32 µM in assay [13]; 19.8 µM in assay [15]. In addition, the IC50 in [8] and in [10] was more than 10 µM throughout.
